According to article PMC5468484 (The Pediatric infectious disease journal, 2017):
“Also recorded” adds a separate entry of the source. Where two headings read alike, the source gives them in different places.

Assays:
[1] = Long term stability of dalbavancin plasma samples; format: in vitro ADME, human; conditions: plasma (K2-EDTA), 368 days stored at −20°C, LC-MS/MS
Safety evaluation = format: in vivo, human
[2] = human plasma; cited from earlier work
[3] = cited from earlier work
[4] = tested on: acute bacterial skin and skin structure infections; conditions: adults, cited from earlier work
clinical = conditions: human, in vivo, iv
[5] = tested on: cytochrome P450 isoenzymes; conditions: cited from earlier work
[6] = for Terminal half-life: study DUR001-106, single IV dose, post-hoc slope of gamma phase, three compartment model, median (range)
[7] = among the 36 treatment-emergent AEs
[8] = children 3 months to 11 years (N=34)
[9] = children 3 months to 11 years, single IV dose
[10] = nonparametric bootstrap (N=1000) of final model
[11] = three-compartment model, 43 subjects, typical value at weight 40.9 kg

In the case of `CN[C@H]1C(=O)N[C@@H]2Cc3ccc(cc3)Oc3cc4cc(c3O[C@@H]3O[C@H](C(=O)O)[C@@H](O)[C@H](O)[C@H]3NC(=O)CCCCCCCCC(C)C)Oc3ccc(cc3Cl)[C@@H](O)[C@@H]3NC(=O)[C@H](NC(=O)[C@@H]4NC(=O)[C@@H](NC2=O)c2cc(cc(O)c2Cl)Oc2cc1ccc2O)c1ccc(O)c(c1)-c1c(O[C@H]2O[C@H](CO)[C@@H](O)[C@H](O)[C@@H]2O)cc(O)cc1[C@@H](C(=O)NCCCN(C)C)NC3=O` [dalbavancin], the “Long term stability of plasma samples” value [1] is reported as “stable”, the “AEs deemed possibly related to dalbavancin treatment” value (Safety evaluation; N=1 each) is reported as “rash, diaper dermatitis, urticaria, and asymptomatic hepatic enzyme elevation” and the “Treatment-emergent AEs considered mild” value (Safety evaluation; [7]) is reported as 26. The “Treatment-emergent AEs considered moderate” value (Safety evaluation; [7]) was 6, the “Treatment-emergent AEs considered severe” value (Safety evaluation; [7]) was 4 and the “Number of treatment-emergent AEs” value (Safety evaluation; [8]) was 36. For the same compound, the “Serious or severe treatment-emergent AEs considered related to dalbavancin treatment” value (Safety evaluation; [8]) was “None and no serious or severe AEs related to treatment”, the “Subjects who experienced a serious AE” value (Safety evaluation; [8]) was “Five” and the Deaths (Safety evaluation; [9]) was “no deaths were reported”. The Tolerability (Safety evaluation; [9]) was “well tolerated”, the “AE probably related to study treatment” value (Safety evaluation; one subject) was “infusion site discomfort” and the “Adverse events assessed as possibly or probably related to treatment” value (Safety evaluation; out of 36 treatment-emergent adverse events) was “Five”. The “Binding to plasma proteins” value [2] was 93%, the “Volume of distribution at steady-state” value ([3]; adults) was 15.9 L and the “Eliminated as the parent compound in feces and urine” value [3] was ~ 70%. The “Efficacy of single 1500 mg infusion versus the 2-dose regimen” value ([4]; ABSSSI) was “as effective as the 2-dose regimen; also recorded: noninferior to the 2-dose regimen”, the “Efficacy versus intravenous vancomycin with subsequent oral linezolid in ABSSSI” value ([4]; two studies, 2-dose dalbavancin regimen) was “not inferior; also recorded: noninferior” and the clearance (clinical) was 1.05 mL/h/kg. The clearance (clinical; 10 mg/kg) was 1.23 mL/h/kg, the clearance (clinical; 15 mg/kg) was 0.795 mL/h/kg and the “Substrate, inhibitor or inducer of cytochrome P450 isoenzymes” value [5] was “not a substrate, inhibitor, or inducer”. For the same compound, the Terminal half-life ([6]; 2 years to <6 years (N=11)) was 315 (271–332) h, the Terminal half-life ([6]; 3 months to <2 years (N=11)) was 279 (244–298) h and the Terminal half-life ([6]; 6 to 11 years (N=11)) was 390 (317–490) h. The “Power coefficient of albumin on Vc, final model estimate” value ([6]; (Albumin/3.7)^coefficient) was −0.73, the “Power coefficient of albumin on Vc, bootstrap median” value [6, 10] was −0.72 and the “Power coefficient of weight on volume parameters, bootstrap median” value [6, 10] was 0.95. For the same compound, the “Power coefficient of weight on volume parameters, final model estimate” value ([6]; same coefficient for Vc, Vp1, Vp2, ((Weight in kg)/40.9)^coefficient) was 0.95, the “Vp1 (volume of distribution for peripheral compartment 1), final model estimate” value [6, 11] was 2.90 L and the “Vp2 (volume of distribution for peripheral compartment 2), final model estimate” value [6, 11] was 2.93 L.
